Results: ChEMBL document CHEMBL1201862, “PubChem BioAssay data set” (2004)
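Briefly, cells in 96-well plates were exposed to five compound concentrations for 48 h, and endpoints were estimated by linear interpolation. GI50 = concentration required for 50% inhibition of growth.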 The source made the active and inactive calls. Rule as the data show it: active = GI50 up to about 1.1 µM and inactive = higher.

Legend:
Experiment in all cases: NCI tumour cell line growth inhibition, 48 h
HT-29 = tested on: HT-29
SK-MEL-28 = tested on: SK-MEL-28
CCRF-CEM = tested on: CCRF-CEM
A498 = tested on: A498
MDA-N = tested on: MDA-N
EKVX = tested on: EKVX
UO-31 = tested on: UO-31
RPMI-8226 = tested on: RPMI-8226
K562 = tested on: K562
HCT-116 = tested on: HCT-116
SK-OV-3 = tested on: SK-OV-3
NCI-H460 = tested on: NCI-H460
SF-539 = tested on: SF-539
MDA-MB-231 = tested on: MDA-MB-231
SNB-19 = tested on: SNB-19
HOP-62 = tested on: HOP-62
SR = tested on: SR

SMILES	GI50 (HT-29)	GI50 (SK-MEL-28)	GI50 (CCRF-CEM)	GI50 (A498)	GI50 (MDA-N)	GI50 (EKVX)	GI50 (UO-31)	GI50 (RPMI-8226)	GI50 (K562)	GI50 (HCT-116)	GI50 (SK-OV-3)	GI50 (NCI-H460)	GI50 (SF-539)	GI50 (MDA-MB-231)	GI50 (SNB-19)	GI50 (HOP-62)	GI50 (SR)
CN1CCc2cc(N)cc3c2C1Cc1ccc(O)c(O)c1-3 (stereo unspecified)	34.4 µM (inactive)	35.6 µM (inactive)	3.75 µM (inactive)	57.7 µM (inactive)	34.7 µM (inactive)	43.6 µM (inactive)	42.8 µM (inactive)	21.8 µM (inactive)	24.9 µM (inactive)	32.2 µM (inactive)	52.7 µM (inactive)	30.5 µM (inactive)	38 µM (inactive)	75 µM (inactive)	46.6 µM (inactive)	49.3 µM (inactive)	28.4 µM (inactive)
BrCC[P+](c1ccccc1)(c1ccccc1)c1ccccc1	13.3 µM (inactive)	4.89 µM (inactive)	2.25 µM (inactive)	11.4 µM (inactive)	2.61 µM (inactive)	0.792 µM (active)	4.75 µM (inactive)	0.948 µM (active)	1.77 µM (inactive)	2.28 µM (inactive)	24.5 µM (inactive)	19.5 µM (inactive)	15 µM (inactive)	18.3 µM (inactive)	21.4 µM (inactive)	6.68 µM (inactive)	4.93 µM (inactive)
C=C(Cl)C(Cl)(CBr)CCC(Br)C(C)(C)Br (stereo unspecified)	1.07 µM (active)	2.95 µM (inactive)	6.21 µM (inactive)	10.5 µM (inactive)	8.93 µM (inactive)	8.45 µM (inactive)	8.17 µM (inactive)	0.426 µM (active)	4.73 µM (inactive)	1.74 µM (inactive)	17.2 µM (inactive)	1.72 µM (inactive)	1.99 µM (inactive)	11.9 µM (inactive)	8.75 µM (inactive)	1.06 µM (active)	13.4 µM (inactive)
Cc1cccc(NC(=S)N/N=C(/c2ccccc2)c2ccccn2)c1	0.0285 µM (active)	1.89 µM (inactive)	< 0.01 µM (active)	1.98 µM (inactive)	0.46 µM (active)	0.0885 µM (active)	0.385 µM (active)	< 0.0182 µM (active)	< 0.0135 µM (active)	< 0.0131 µM (active)	0.038 µM (active)	0.159 µM (active)	1.31 µM (inactive)	0.0378 µM (active)	3.6 µM (inactive)	1.29 µM (inactive)	< 0.0144 µM (active)
CN(C)Cc1cc(/N=N/c2ccc(Cl)cc2)cc(CN(C)C)c1O	6.62 µM (inactive)	11.7 µM (inactive)	2.1 µM (inactive)	14.7 µM (inactive)	13.2 µM (inactive)	> 10 µM (inactive)	1.52 µM (inactive)	12.8 µM (inactive)	2.52 µM (inactive)	4.85 µM (inactive)	17.1 µM (inactive)	5.15 µM (inactive)	10 µM (inactive)	7.71 µM (inactive)	10.6 µM (inactive)	2.58 µM (inactive)	4.59 µM (inactive)
CNc1ncccc1Nc1cc(=O)n2c3cccnc3n(C)c2c1	58.3 µM (inactive)	> 100 µM (inactive)	> 100 µM (inactive)	89.7 µM (inactive)	> 100 µM (inactive)	> 100 µM (inactive)	> 100 µM (inactive)	> 100 µM (inactive)	> 100 µM (inactive)	> 100 µM (inactive)	> 100 µM (inactive)	> 100 µM (inactive)	73.5 µM (inactive)	13.7 µM (inactive)	40.9 µM (inactive)	36.8 µM (inactive)	> 100 µM (inactive)
C=CCOC(=O)C1C2OC3(C(C(=O)OC)=C2C(=O)OC)c2ccccc2CCC13 (stereo unspecified)	> 10 µM (inactive)	> 10 µM (inactive)	> 10 µM (inactive)	> 10 µM (inactive)	> 10 µM (inactive)	> 10 µM (inactive)	> 10 µM (inactive)	> 10 µM (inactive)	> 10 µM (inactive)	> 10 µM (inactive)	> 10 µM (inactive)	> 10 µM (inactive)	> 10 µM (inactive)	> 10 µM (inactive)	> 10 µM (inactive)	> 10 µM (inactive)	> 10 µM (inactive)
C=C(C)[C@@H]1CC[C@]2(C)CC[C@]3(C)[C@H](CC[C@@H]4[C@@]5(C)CC[C@H](OC(=O)c6ccccc6)C(C)(C)[C@@H]5CC[C@]43C)[C@@H]12	> 100 µM (inactive)	> 100 µM (inactive)	> 100 µM (inactive)	> 100 µM (inactive)	> 100 µM (inactive)	> 100 µM (inactive)	> 100 µM (inactive)	> 100 µM (inactive)	> 100 µM (inactive)	> 100 µM (inactive)	> 100 µM (inactive)	> 100 µM (inactive)	> 100 µM (inactive)	> 100 µM (inactive)	> 100 µM (inactive)	> 100 µM (inactive)	48.2 µM (inactive)
